The results in this text go back to patent publication US7652071B2, “Penetration of active substances into cells and organs” (Alpha-Biocare GmbH, priority 2003, dated 2010).

This assay relates to Angiostrongylus cantonensis. The assay is described as follows: Detection of worm stages in the brain of Wistar rats experimentally infected with Angiostrongylus cantonensis after oral treatment. In kind it is in vivo. The method, then:
Each rat was infected with precisely 60 L3 larvae. From day 5 post-infection onwards, mebendazole was administered once daily on three successive days at the dosage rates and in the formulations stated. The worms were detected on day 21 post-infection.

Turning to `COC(=O)Nc1nc2ccc(C(=O)c3ccccc3)cc2[nH]1` [Mebendazole, mebendazole], the “Worm detection in the brain” value (aqueous suspension, mebendazole 10 mg/kg body weight oral, once daily on three successive days from day 5 post-infection, worms detected day 21, % of infection control (55 worms = 100%)) is reported as 98.2%. Also, where the note is “mebendazole with the aid of the carrier system, at a more than 30-fold reduced mebendazole dose”, the “Worm reduction in the brain” value is recorded as “significant worm reduction in the brain”.
